1 compound from patent US20250170111A1, “PYRIDINE BASED CHALCONE ANALOGS AS THERAPEUTIC AGENTS AND USE THEREOF” (QATAR UNIVERSITY, priority 2023, published 2025) can be followed below.

Data set [1] has as its system DU145. Description: Alamar Blue cell viability assay, DU145. Conditions: Homo sapiens, DU-145, 48 h.
Data set [2] deals with PC3 and DU145. Description: Alamar Blue cell viability, AR-negative PCa cell lines (stated for both). Conditions: Homo sapiens, DU-145, read-out: IC50 against PC3 and DU145 cell lines. (Resazurin is reduced to fluorescent resorufin, in cell work by metabolically active cells.)
The subject of data set [3] is PC3. Description: Annexin V / 7-AAD apoptosis assay, PC3. The data set is classed as cell-based, human. Conditions: 48 hours. Here is the method:
(§1) Cellular apoptosis was assessed by PE Annexin V apoptosis Detection Kit (BDPharmingen, USA) as per the manufacturer's protocol. Briefly, cells were seeded in 100 mm Petri dishes at a density of 1.5 million cells/dish and incubated overnight. […] Adherent and floating cells were then harvested by trypsin, washed twice by PBS, resuspended in binding buffer and stained with Phycoerythrin (PE) conjugated Annexin-V, 7-AAD or both stains for 15 minutes. After staining, samples were analyzed by BD FACSAria™ II Flow Cytometer and FlowJo software. First, the cell population, excluding debris, was gated with forward scatter (FSC-A) and side scatter (SSC-A). Then, doublets were excluded using FSC-height and FSC-width plots. […] Quad Gates were used to calculate the percentage of viable cells (annexin V low, 7-AAD low), early pro-apoptotic cells (annexin V high, 7-AAD low) and late apoptosis/dead cells (annexin V high, 7-AAD high).

Data set [4] deals with PC3. Description: Alamar Blue cell viability assay, PC3.
In data set [5] the test system is DU145. Description: Soft agar colony formation assay, DU145. The data set is classed as cell-based, human. On the set-up: average size of detected colonies, DU145: unit not given here. Conditions: 10 μM. The method, then:
(§2) Anchorage-independent growth, a characteristic of transformed cells that correlate with in vivo tumorigenic potential, was assessed by soft agar assay. First, a 2% noble agar (Sigma-Aldrich) stock solution was prepared in deionized and autoclaved water. […] After 14 days, the average number of colonies in each well was counted manually under the microscope and confirmed by ImageJ; only colonies with an area larger than […] were counted to avoid the inclusion of non-proliferating dead cells. Besides, the size of colonies in each treatment condition was measured by ImageJ from at least six random fields per well.

The test system of data set [6] is DU145. Description: Annexin V / 7-AAD apoptosis assay, DU145. Format: cell-based, human. Conditions: 48 hours. The method, then:
as §1

In another data set the test system is JNK1/2/3, ERK1/2, Akt. Description: Western blot of JNK, ERK and AKT-related biomarkers in PC3. Conditions: PC3 cell line. In general terms: Immunoblotting shows a protein as a band on a membrane.
The test system of the next data set is Bax, Bcl-2. Description: Western blot of apoptosis-related proteins in PC3 and DU145. Conditions: PC3 and DU145, 48 hours of treatment.
In a further data set the test system is CAM of chicken embryos. Description: Chorioallantoic membrane (CAM) angiogenesis assay. Format: in vivo. Conditions: in ovo, 48 hours post-treatment, vs control. Here is the method: Fertilized white leghorn chicken eggs were obtained from Arab […] for Poultry Production, Doha, Qatar. Eggs were incubated in a rotary humidified MultiQuip Incubator at 37° C. with 60% humidity. Ethics approval was obtained from Institutional Animal Care & Use Committee and Institutional Bio-safety committee at Qatar University. […] Briefly, eggshells were disinfected with ethanol and a small opening was made in the shell over the air sac. Next, 200 μl of 1×PBS was added and the shell membrane was carefully removed. […] Subsequently, opened windows were sealed and the eggs were returned to a stationary incubator (FIG. 11). The effect of compounds on angiogenesis was monitored for 48 hours post-treatment and microscopic images of exposed (under coverslip) and unexposed area in each embryo were captured at equivalent magnification. Images were then analyzed using AngioTool software using the following parameters: vessel diameter thresholds at, vessel thickness at 7 and 10, removed small particles at 60, and filled holes at 183. The difference in blood vessel formation between treated and untreated embryos was assessed based on average vessel length, vessel percentage area and the total number of blood vessel junctions. […]

Data set [7] deals with PC3. Description: Soft agar colony formation assay, PC3. The data set is classed as cell-based, human. On the set-up: average size of detected colonies, PC3: unit not given here. Conditions: 10 μM. The method, then: as §2
The test system of data set [8] is DU145. Description: Cell cycle analysis (PI flow cytometry), DU145. Conditions: DU145, 48 hours; not statistically significant (P>0.05). The data set is classed as cell-based, human. The method, then: Cells were seeded in 100 mm Petri dishes at a density of 1.5 million cells/dish and incubated in RPMI supplemented with 10% FBS overnight at 37° C. Complete culture media was then removed, and cells were starved in serum serum-free for 16 hours to synchronize cells at the G0/G1 phase of the cell cycle. Subsequently, cells were treated with the compounds 13, 15, and 16 or docetaxel for 48 hours. After treatment, floating and adherent cells were collected, washed with ice-cold PBS and centrifuged at 500 g for 10 minutes at 4° C. Next, cells were fixed with ice-cold 70% ethanol added drop wisely while vertexing and stored at −20° C. for at least 24 hours. On the day of analysis, cells were pelleted (centrifuged at 800 g for 10 minutes at 4° C.), washed twice with ice-cold PBS and counted. Around one million cells of each sample were resuspended in 500 μl of FxCycle PI/RNase Staining Solution® (Thermo Fisher Scientific, USA) supplemented with 200 μg/ml RNase and incubated for 50 minutes at 37° C. in a shaking water bath, protected from light. Following incubation, cells were immediately analyzed by BD FACSAria™ II Flow Cytometer, at least 50,000 events were acquired for each sample. The proportion of cells in each cell cycle phase: […]
On the technique in general: A flow cytometer gives signals particle by particle.

Data set [9] deals with PC3 and DU145. Description: Morphological examination, PC3 and DU145. Conditions: 5 μM. Format: cell-based, human. Here is the method: Cells were seeded in 6 wells plate at a density of 150,000-200,000 cells/well and were incubated overnight. Then, cells were treated with the synthesized compounds at 5-10 μM concentration for 48 hours. Morphological changes were monitored using a DMi8 inverted microscope (Leica, Germany) and images were captured with a Leica MC170 HD camera.
The induction of apoptosis in cancer cells has been widely considered an important criterion in developing anticancer drugs. To confirm whether the synthesized compounds could reduce cell viability and induce apoptosis in PC3 and DU145, prostate cancer cells were treated with compounds 1-16 at 10 μM concentrations for 48 hours. Cells were examined for the formation of apoptotic bodies or death by phase-contrast microscopy (FIGS. 21 and 22). More importantly, cells were monitored for characteristic changes in cell morphology as they can provide insight into cell differentiation, invasiveness, survival, and genetic alterations.

The test system of data set [10] is primary human dental bulb cells (ND). Description: Alamar Blue cell viability, normal primary dental cells. Conditions: 48 hours, Mean ± SEM.
Data set [11] deals with PC3 and DU145. Description: Soft agar colony formation assay, PC3 and DU145 (stated for both). Format: cell-based, human. Conditions: 5 and 10 μM, 14 days, both cell lines. The method, then: as §2
For data set [12], the system named is PC3 and DU145. Description: Wound healing assay, PC3 and DU145. Conditions: both cell lines; significant from 5 μM in PC3.
The next data set has as its system E-cadherin. Description: Western blot of EMT-related biomarkers in DU145. Conditions: DU145 cells.
The mark [13] stands for this setting: 14 days, in comparison to control.

Read-outs that look alike come from different tables or passages of the source.

Broadly, the IC50 is the concentration that inhibits the measured activity by half. Take `COc1cccc(C(=O)/C=C/c2cccc(-c3ccsc3)n2)c1` [Compound 16, (E)-1-(3-methoxyphenyl)-3-(6-(thiophen-3-yl)pyridin-2-yl) prop-2-en-1-one]: the IC50 was 5.2 ± 0.46 µM with DU145 [1] (read-out: DU145 IC50); 5.2 µM with DU145 [1] (read-out: IC50 against DU145); 4.32 to 6.47 µM with PC3 and DU145 [2]; 4.32 ± 0.37 µM in the data set on PC3 [4] (read-out: PC3 IC50, 48 hours, Mean ± SEM of three independent experiments). Moreover, in the data set on DU145 [1] (read-out: reduction in cell viability of DU145), the cytotoxicity at 10 µM amounted to 81%. Also, the “induction of apoptosis in PC3” value with PC3 [3] was found to be 34.7%. The “reduction in cell viability of PC3” value in the data set on PC3 [4] (2.5 μM) amounted to 47.5%. In addition, in the data set with DU145 [5] (setting [13]), the “reduction in number of colonies, DU145” value worked out at 84.9%. In addition, in the data set on DU145 [5] (control 196.0), the “average size of detected colonies, DU145” value is 18.7. Besides, the “induction of apoptosis in DU145” value with DU145 [6] was 47.8%. For the same compound, the “expression of JNK1/2/3, ERK1/2, Akt and phosphorylated forms” value in the data set on JNK1/2/3, ERK1/2, Akt was “significantly reduced the expression of JNK1/2/3 and phosphorylated ERK1/2”. Further, in the data set with Bax, Bcl-2, the Bax/Bcl-2 expression result is reported as “significant increase in Bax/Bcl-2 ratio”. Further, in the data set on CAM of chicken embryos, the “effect on angiogenesis of the CAM” value is “significant reduction in average vessel length, a total number of junctions, and vessel area”. Also, the “reduction in number of colonies, PC3” value in the data set on PC3 [7] (setting [13]) is recorded as 82.8%. Further, the “average size of detected colonies, PC3” value with PC3 [7] (control 583.2) turned out to be 20.0. For the same compound, the “effect on cell cycle distribution” value in the data set on DU145 [8] is “slight accumulation in G2/M and sub G1 phases”. The “effect on cell morphology” value in the data set with PC3 and DU145 [9] was “increased cell detachment, the formation of apoptotic bodies, and cell shrinkage”. In addition, in [10], the “ND LD50” value was 24.67 ± 1.03 µM. In addition, in the data set with PC3 and DU145 [11], the “colony formation in soft agar (number and size)” value was “significant reduction in both the total number of colonies and average colony size”. Also, the wound closure entry in the data set with PC3 and DU145 [12] is “dose-dependent reduction in wound closure”. The “expression of E-cadherin” value in the data set on E-cadherin is “significantly upregulate the expression of E-cadherin”.
